Patent US11440886B2, “Anti-inflammatory compound, and preparation and use thereof” (E-Nitiate Biopharmaceuticals (Hangzhou) Co., Ltd., priority 2018, dated 2022)

Target: human recombinant PDE4B1 enzyme (Homo sapiens (Human), UniProt Q07343)
Test: Inhibition of PDE4B1 activity by cAMP HTRF assay
Format: biochemical
Settings: human recombinant PDE4B1, cAMP 40 nM, pH 7.4
Experimental: Determination of the inhibition of the compounds on PDE4B1 activity by using cAMP HTRF® assay
The inhibitory effect of the compounds on human PDE4B1 enzyme activity was determined by quantifying the 5′-adenosine monophosphate (5′-AMP) formed from 3′,5′-cyclic adenosine monophosphate (cAMP).
The test compound or water (control) and human recombinant PDE4B1 enzyme (4.8 U) were mixed in a buffer solution (pH 7.4) consisting of 1× Hanks' balanced salt solution (HBSS), 5 mM HEPES, 3 mM MgCl2, and 0.1% BSA and incubated for 10 min. A cAMP enzyme substrate (final concentration 40 nM) was added, and the mixture was incubated at room temperature for 60 min. Then a fluorescent acceptor (Dye2 labeled with cAMP), a fluorescent donor (anti-cAMP antibody labeled with europium cryptate) and a non-specific phosphodiesterase inhibitor IBMX (3-isobutyl-1-methyl xanthine; final concentration 1 mM) were added. After 60 min, the fluorescence transfer related to the amount of remaining cAMP was measured on a microplate reader (Rubystar, BMG) at λex=337 nm, λem=620 nm and λem=665 nm. The enzyme activity is calculated from the ratio of the signals measured at 665 nm and 620 nm. The results are expressed as percent inhibition of the enzyme activity of the control (without PDE4 inhibitor). The enzyme was omitted for measurement of the basic control. The IC50 value (IC50=the concentration that caused the half-maximum inhibition of the specific activity of the control) is derived from dose-response measurements with eight different concentrations (n=2; repeated 2 times)

Chain of human recombinant PDE4B1 enzyme (Q07343 whole entry): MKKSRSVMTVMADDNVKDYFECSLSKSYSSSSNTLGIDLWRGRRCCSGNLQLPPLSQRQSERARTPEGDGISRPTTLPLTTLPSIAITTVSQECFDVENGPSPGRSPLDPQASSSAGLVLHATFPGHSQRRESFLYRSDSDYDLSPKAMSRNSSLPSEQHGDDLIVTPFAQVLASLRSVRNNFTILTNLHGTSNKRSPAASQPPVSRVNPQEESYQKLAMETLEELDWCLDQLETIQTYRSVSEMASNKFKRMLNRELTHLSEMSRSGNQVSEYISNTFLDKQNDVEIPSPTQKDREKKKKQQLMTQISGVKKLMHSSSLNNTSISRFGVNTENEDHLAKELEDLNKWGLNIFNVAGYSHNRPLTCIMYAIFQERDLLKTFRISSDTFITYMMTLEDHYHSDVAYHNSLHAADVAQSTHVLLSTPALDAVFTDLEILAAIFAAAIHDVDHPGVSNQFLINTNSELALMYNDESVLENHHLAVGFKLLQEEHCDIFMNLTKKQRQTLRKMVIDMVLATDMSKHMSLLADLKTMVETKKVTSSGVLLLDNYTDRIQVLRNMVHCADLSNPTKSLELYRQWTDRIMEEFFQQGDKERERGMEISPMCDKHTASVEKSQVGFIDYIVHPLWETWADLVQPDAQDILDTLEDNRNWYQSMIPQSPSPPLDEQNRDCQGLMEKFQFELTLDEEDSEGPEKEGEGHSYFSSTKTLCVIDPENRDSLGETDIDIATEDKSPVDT

Structure (SMILES) | IC50
COc1ccc(C(=O)Cn2ccc(=O)cc2)cc1OCC1CC1 [Example 45, 1-(2-(3-cyclopropylmethoxy-4-methoxyphenyl)-2-oxoethyl)pyridin-4(1H)-one] | 0.17 µM
COc1ccc(C(=O)Cn2c(C)cc(=O)cc2C)cc1OCC(C)C [Example 16, 1-(2-(3-iso-butoxy-4-methoxyphenyl)-2-oxoethyl)-2,6-dimethylpyridin-4(1H)-one] | 0.0103 µM
COc1ccc(/C(Cn2c(C)cc(=O)cc2C)=N/OCSC)cc1OCC1CC1 [Example 41, (Z)-1-(2-(3-cyclopropylmethoxy-4-methoxyphenyl)-2-(methylthiomethoxyimido)ethyl)-2,6-dimethylpyridin-4(1H)-one] | 0.00122 µM
COc1ccc(/C(Cn2c(C)cc(=O)cc2C)=N/OC[S+](C)[O-])cc1OCC1CC1 (centres unmarked) [Example 43, (Z)-1-(2-(3-cyclopropylmethoxy-4-methoxyphenyl)-2-(methylsulfoxidemethoxyimido)ethyl)-2,6-dimethylpyridin-4(1H)-one] | 0.0049 µM
COc1ccc(/C(Cn2c(C)cc(=O)cc2C)=N\O)cc1OCC1CC1 [Example 38-2, (E)-1-(2-(3-cyclopropylmethoxy-4-methoxyphenyl)-2-(hydroxyimido)ethyl)-2,6-dimethylpyridin-4(1H)-one] | 0.071 µM
COc1ccc(C(Cn2c(C)cc(=O)cc2C)OC(=O)C2CC2)cc1OCC1CC1 (centres unmarked) [Example 4, (1-(3-cyclopropylmethoxy-4methoxyphenyl)-2-(2,6-dimethyl-4-carbonylpyridin-1(4H)-yl)ethyl) cyclopropylcarboxylate] | 0.036 µM
COc1ccc(C(=O)Cn2c(C)cc(=O)cc2C)cc1OCC1CCC1 [Example 22, 1-(2-(3-cyclobutylmethoxy-4-methoxyphenyl)-2-oxo)ethyl-2,6-dimethylpyridin-4(1H)-one] | 0.02 µM
CC#C/C(=C\n1c(C)cc(=O)cc1C)c1ccc(OC(F)F)c(OCC2CC2)c1 [Example 114, (Z)-1-(2-(3-cyclopropylmethoxy-4-difluoromethoxyphenyl)pent-1-en-3-yn-1-yl)-2,6-dimethylpyridin-4(1H)-one] | 0.0016 µM
COc1ccc(C(=O)Cn2c(C)cc(=O)cc2C)cc1OC1CC=CC1 [Example 25, 1-(2-(3-(cyclopent-3-en-1-yloxy)-4-methoxyphenyl)-2-oxoethyl)-2,6-dimethylpyridin-4(1H)-one] | 0.0115 µM
COc1ccc(/C=C/n2ccc(=O)cc2)cc1OCC1CC1 [Example 50, (E)-1-(3-cyclopropylmethoxy-4-methoxystyryl)pyridin-4(1H)-one] | 0.18 µM
CCCCOc1cc(C(=O)Cn2c(C)cc(=O)cc2C)ccc1OC [Example 15, 1-(2(3-n-butoxy-4-methoxyphenyl)-2-oxoethyl)-2,6-dimethylpyridin-4(1H)-one] | 0.033 µM
COc1ccc(/C=C/n2c(C)cc(=O)cc2C)cc1OCC(C)C [Example 56, (E)-1-(3-iso-butoxy-4-methoxystyryl)-2,6-dimethylpyridin-4(1H)-one] | 0.016 µM
COc1ccc(C(Cn2c(C)cc(=O)cc2C)OC(=O)C=C(C)C)cc1OCC1CC1 (centres unmarked) [Example 7, (1-(3-cyclopropylmethoxy-4methoxyphenyl)-2-(2,6-dimethyl-4-carbonylpyridin-1(4H)-yl)ethyl) 3-methylcrotonate] | 0.0057 µM
COc1ccc(C(=O)Cn2c(C)cc(=O)cc2C)cc1OCC1CC1 [Example 20, 1-(2-(3-cyclopropylmethoxy-4-methoxyphenyl)-2-oxo)ethyl-2,6-dimethylpyridin-4(1H)-one] | 0.013 µM
COc1ccc(C2CC2n2c(C)cc(=O)cc2C)cc1OCC1CC1 (centres unmarked) [Example 48, 1-(2-(3-cyclopropylmethoxy-4-methoxyphenyl)cyclopropyl)-2,6-dimethylpyridin-4(1H)-one] | 0.42 µM
COc1ccc(C(=O)Cn2c(C)cc(=O)cc2C)cc1OC1CCC1 [Example 21, 1-(2-(3-cyclobutyloxy-4-methoxyphenyl)-2-oxoethyl)-2,6-dimethylpyridin-4(1H)-one] | 0.0046 µM

Continued, values first:

IC50 | Structure (SMILES)
0.039 µM | C=CCOc1cc(C(=O)Cn2c(C)cc(=O)cc2C)ccc1OC [Example 26, 1-(2-(3-allyloxy-4-methoxyphenyl)-2-oxoethyl)-2,6-dimethylpyridin-4(1H)-one]
0.081 µM | COc1ccc(/C=C/n2c(C)cc(=O)cc2C)cc1O[C@@H]1CC[S+]([O-])C1 (single isomer, unassigned) [Example 86-2]
0.0038 µM | CSCOc1cc(/C=C/n2c(C)cc(=O)cc2C)ccc1OC(F)F [Example 90, (E)-1-(3-methylthiomethoxy-4-difluoromethoxy-styryl)-2,6-dimethylpyridin-4(1H)-one]
0.027 µM | COc1ccc(/C=C/n2c(C)cc(=O)cc2C)cc1OC1COC1 [Example 68, (E)-1-((3-(oxacyclobutan-3-yl-oxy)-4-methoxy)-styryl)-2,6-dimethylpyridin-4(1H)-one]
0.05 µM | Cc1cc(=O)cc(C)n1/C=C/c1ccc(OC(F)F)c(O[C@@H]2CCS(=O)(=O)C2)c1 [Example 102, (R,E)-1-(3-(1,1-dioxotetrahydrothiophen-3-yl)oxy-4-difluoromethoxystyryl)-2,6-dimethylpyridin-4(1H)-one]
0.0038 µM | COc1ccc(/C=C/n2c(C)cc(=O)cc2C)cc1O[C@@H]1CCSC1 [Example 85, (R,E)-1-(3-(tetrahydrothiophen-3-yl)oxy-4-methoxystyryl)-2,6-dimethylpyridin-4(1H)-one]
0.23 µM | COc1ccc(/C=C/n2c(C)cc(=O)cc2C)cc1O[C@H]1CCS(=O)(=O)C1 [Example 84, (S,E)-1-(3-((1,1-dioxotetrahydrothiophen-3-yl)oxy)-4-methoxy-styryl)-2,6-dimethylpyridin-4(1H)-one]
0.1 µM | COc1ccc(/C=C/n2c(C)cc(=O)cc2C)cc1OCC(C)(C)C [Example 57, (E)-1-((3-neopentyloxy-4-methoxy)-styryl)-2,6-dimethylpyridin-4(1H)-one]
0.106 µM | COc1ccc(/C=C/n2c(C)cc(=O)cc2C)cc1O[C@H]1CC[S+]([O-])C1 (single isomer, unassigned) [Example 83-2]
3.6 µM | COc1ccc(/C=C(\C(N)=O)n2c(C)cc(=O)cc2C)cc1OCC1CC1 [Example 117]
0.0068 µM | CO/N=C(/Cn1c(C)cc(=O)cc1C)c1ccc(OC)c(OCC2CC2)c1 [Example 40, (E)-1-(2-(3-cyclopropylmethoxy-4-methoxyphenyl)-2-(hydroxymethylimido)ethyl)-2,6-dimethylpyridin-4(1H)-one]
0.83 µM | COc1ccc(C(=O)Cn2c(C)cc(=O)cc2C)cc1OC[S+](C)[O-] (centres unmarked) [Example 33, 1-(2-(3-methylsulfoxidemethoxy-4-methoxyphenyl)-2-oxoethyl)-2,6-dimethylpyridin-4(1H)-one]
0.094 µM | Cc1cc(=O)cc(C)n1/C=C/c1ccc(OC(F)F)c(OCS(C)(=O)=O)c1 [Example 92, (E)-1-(3-methylsulfonemethoxy-4-difluoromethoxy-styryl)-2,6-dimethylpyridin-4(1H)-one]
0.17 µM | CC#CCOc1cc(/C=C/n2c(C)cc(=O)cc2C)ccc1OC [Example 67, (E)-1-(3-(but-2-yn-1-yloxy)-4-methoxystyryl)-2,6-dimethylpyridin-4(1H)-one]
0.46 µM | CCN(CC)C(=O)/C(=C\n1c(C)cc(=O)cc1C)c1ccc(OC)c(OCC2CC2)c1 [Example 110, (Z)-2-(3-cyclopropylmethoxy-4-methoxyphenyl)-3-(2,6-dimethyl-4-carbonylpyridin-1(4H)-yl)-N,N-diethylacrylamide]
0.097 µM | Cc1cc(=O)cc(C)n1/C=C/c1ccc(OC(F)F)c(O[C@H]2CC[S+]([O-])C2)c1 (single isomer, unassigned) [Example 98-1]
0.0062 µM | COc1ccc(/C=C/n2c(C)cc(=O)cc2C)cc1OC1CCC1 [Example 61, (E)-1-(3-cyclobutyloxy-4-methoxy-styryl)-2,6-dimethylpyridin-4(1H)-one]
0.00115 µM | COc1ccc(/C=C/n2c(C)cc(=O)cc2C)cc1OC1CCS(=O)(=O)C1 (centres unmarked) [Example 81, (E)-1-(3-((1,1,-dioxotetrahydrothiophen-3-yl)oxy)-4-methoxystyryl)-2,6-dimethylpyridin-4(1H)-one]
0.138 µM | COC(=O)/C(=C\n1c(C)cc(=O)cc1C)c1ccc(OC)c(OCC2CC2)c1 [Example 112, (Z)-methyl 2-(3-cyclopropylmethoxy-4-methoxyphenyl)-3-(2,6-dimethyl-4-carbonylpyridin-1(4H)-yl)-acrylate]
0.043 µM | C=CCOc1cc(/C=C/n2c(C)cc(=O)cc2C)ccc1OC [Example 64, (E)-1-(3-allyloxy-4-methoxy-styryl)-2,6-dimethylpyridin-4(1H)-one]
1.09 µM | COc1ccc(/C(Cn2c(C)cc(=O)cc2C)=N/O)cc1OCC1CC1 [Example 38-1, (Z)-1-(2-(3-cyclopropylmethoxy-4-methoxyphenyl)-2-(hydroxyimido)ethyl)-2,6-dimethylpyridin-4(1H)-one]
0.17 µM | CCOC(=O)/C(=C\n1c(C)cc(=O)cc1C)c1ccc(OC)c(OCC2CC2)c1 [Example 113, (Z)-ethyl 2-(3-cyclopropylmethoxy-4-methoxyphenyl)-3-(2,6-dimethyl-4-carbonylpyridin-1(4H)-yl)-acrylate]
